Reference: US5028411A, “Pharmaceutical compositions” (priority 1984, dated 1991)
Read-outs that look alike come from different tables or passages of the source. Blank lines part the entries; values can stand above or below the molecule they belong to.

Key:
rat jejunal sac [1] = experiment: In vitro permeation of rat jejunal sac by iron complexes
Protocol: Rats (male Sprague Dawley, 60 g) were killed and the jejunum removed, everted and cut into three segments (4 cm length). The segments were tied at both ends, filled with Krebs Ringer buffer (0.2 ml) and incubated in Krebs Ringer buffer containing the appropriate ^59 Fe compound at 37° C. for periods up to 90 minutes. The contents of the sac were counted for ^59 Fe and measured spectrophotometrically.

[2] = Protocol: An indication of the properties of a compound in this respect is provided by the value of the partition coefficient (Kpart) obtained on partition between n-octanol and Tris hydrochloride (20 mM, pH 7.4; Tris representing 2-amino-2-hydroxymethylpropane 1,3-diol) at 20° C. and expressed as the ratio (concentration of compound in organic phase)/(concentration of compound in aqueous phase).
Acid washed glassware is used throughout and, following mixing for 1 minute, the aqueous/n-octanol mixture is centrifuged at 1000 g for 30 seconds. The two resulting phases are separated for a concentration determination by spectrophotometry on each.

[3] = In vivo test of action of iron compounds in the rat (59Fe into duodenum)
Protocol: Groups of rats (300-350 g) were anaesthetised with nembutal (0.25 ml) and then with ether. A mid-line incision was made and the ^59 Fe labelled sample (100 μg Fe, 10 μCi) was passed into the lumen of the duodenum via a small incision. The abdominal well was then closed with a suture. The animals were sacrificed 1, 2, 4 and 6 hours after the administration of the compound and the various organs were monitored for their ^59 Fe content. […] In the case of the data for blood and sternum (bone marrow) the counts given are cpm/ml and cpm/g respectively, whilst in all other cases they are the total cpm counts.

[4] = type: in vivo, cat
Protocol: (§1) Cats were anaesthetised with chloralase (60 mg/kg) and pentobarbitone sodium (60 mg/kg) (i.p.), having been kept free of food for 18 hours. In each animal the trachea was cannulated to maintain a clear airway and to allow positive pressure artificial respiration if necessary. The left femoral vien was cannulated for the intravenous administration of drugs and physiological saline solution. Arterial blood pressure was monitored by a Washington pressure transducer through a cannula inserted into the femoral artery of the right hind leg. Arterial blood samples were taken at appropriate intervals from a short cannula inserted into an external carotid artery. Body temperature was monitored with a rectal thermometer. Each animal was given heparin (1000 iu/kg) as anticoagulant and additional small amounts of pentabarbitone sodium if needed to maintain a satisfactory level of anaesthesia.
The apparent volume of distribution of the compound was calculated by extrapolation of the log-linear blood concentration curve to zero.
The amount of ^59 Fe administered in this experiment was 4 μCi of 2.2×10^6 cpm.

[5] = In vivo cat, duodenal: 59Fe blood level and tissue distribution
Protocol: as §1
In those animals where the iron compounds were to be administered into the duodenum, a mid-line incision was made in the abdomen to reveal the intestines. A cannula was then inserted through a small cut such that its tip rested approximately 5 cm below the opening of the bile duct. The cannula was then sutured in place and the abdominal wall closed with stitches.
The distribution of ^59 Fe in the tissues of the animal after the same duodenal experiment to which FIG. 7 relates were investigated and the typical results are shown in Table 7. The amount of ^59 Fe administered in this experiment was 10 μCi or 5.327×10^6 cpm into a 2.9 kg cat. It will be seen that the distribution of the ^59 Fe after 4 hours was similar to that after intravenous infusion, with low levels in the kidney and urine and high levels in both the spleen and bone marrow.
The distribution of ^59 Fe in the tissues of the animal after the same duodenal experiment were investigated and the typical results are shown in Table 8. The amount of ^59 Fe administered in this experiment was 10 μCi or 2.65×10^6 cpm into a 2.9 kg cat. It will be seen that, although some ^59 Fe entered the tissues, rather low levels were detected in the spleen and bone marrow (sternum) whereas a large proportion of the dose was located in the urine.

apotransferrin = experiment: Exchange of iron(III) between complex and apotransferrin
Source text: (§2) In order to solubilise iron(III) hydroxide, log Ksol must be greater than 0.

rat jejunal sac [6] = type: in vitro ADME, rat (male Sprague Dawley)
Source text: The procedure described above was used to compare the uptake of iron from buffer containing differing molar proportions of maltol:iron.

[7] = tested on: bovine serum albumen (BSA); experiment: Binding to bovine serum albumen (BSA); conditions: column procedure as for haemoglobin
haemoglobin = experiment: Binding to haemoglobin by gel permeation elution profile of 59Fe; conditions: 1 mM complex, NaCl 130 mM, pH 7.4, PD-10 column
human erythrocytes = type: in vitro ADME; conditions: not told
Protocol: Following this period of incubation an aliquot of the erythrocyte/medium mixture was placed above a layer of silicone oil (.rho.=1.06) and the erythrocytes separated by centrifugation through the oil. The ^59 Fe levels associated with the erythrocytes and the incubation medium were then counted and presented as a distribution ratio (concentration in erythrocytes/concentration in medium).

[8] = remark: listed apart in the source
Source text: as §2

erythrocyte ghosts = type: binding, human
Source text: Experiments to determine the percentage of ^59 Fe associated with erthrocyte ghosts after lysis confirm this hypothesis. In one experiment, lysis was initiated by a small volume of 10% v/v Triton X100 and in a second experiment by a 10 fold excess of water. […] Such binding is of course undesirable as the complex is likely to remain tightly bound to the membrane by electrostatic interactions and not be transmitted across it.

[9] = Metabolism of free hydroxypyrone
[10] = Affinity of maltol for copper (II), zinc (II), calcium and magnesium; type: physicochemical; conditions: compared with iron
Source text: as §2

[11] = n-octanol/tris hcl, 100 µM, pH 7.4
[12] = iron EDTA duodenal, 2.65×10^6 cpm
[13] = relative to ferric chloride as 1, 37° C.

Relative iron uptake, 15 minutes (rat jejunal sac [1]): 4.0 | Relative iron uptake, 60 minutes (rat jejunal sac [1]): 1.8
Molecule: O=C([O-])/C=C/C(=O)[O-].[Fe+2] [Fe^II fumarate]

partition coefficient Kpart (concentration in n-octanol/concentration in aqueous phase) [2, 11]: 0.0015 | Relative iron uptake, 15 minutes (rat jejunal sac [1]): 0.4 | Relative iron uptake, 60 minutes (rat jejunal sac [1]): 0.8
Molecule: iron(III) ascorbate [Fe^III ascorbate]

Relative iron uptake, 15 minutes (rat jejunal sac [1]): 2.0 | Relative iron uptake, 60 minutes (rat jejunal sac [1]): 1.0
Molecule: O=C([O-])CCC(=O)[O-].[Fe+2] [Fe^II succinate]

Relative iron uptake, 15 minutes (rat jejunal sac [1]): 2.0 | Relative iron uptake, 60 minutes (rat jejunal sac [1]): 1.8
Molecule: O=C([O-])CC(O)(CC(=O)[O-])C(=O)[O-].[Fe+3] [Fe^III citrate]

Molecule: O=C([O-])CN(CCN(CC(=O)[O-])CC(=O)[O-])CC(=O)[O-].[Fe+3] [Iron EDTA]
59Fe levels in the intestine wall and blood ([3]; 100 μg Fe): extremely low | iron transfer to / 59Fe levels in bone marrow and spleen ([3]; 100 μg Fe, compared with maltol complex): reduced rates | 59Fe in gut washings ([3]; 100 μg Fe, non-absorbed iron): remain high for 4 hours | dose located in the urine ([4]; cat, in vivo, iv): over 50% | rate constant of the elimination from the blood of the linear phase ([4]; cat, in vivo, iv): 0.023 min⁻¹ | Net 59Fe content, Heart ([4]; in vivo, iv): 209 cpm/g | Net 59Fe content, Kidney ([4]; in vivo, iv): 1,134 cpm/g | Net 59Fe content, Liver ([4]; in vivo, iv): 261 cpm/g | Net 59Fe content, Spleen ([4]; in vivo, iv): 162 cpm/g | Net 59Fe content, Sternum (bone marrow) ([4]; in vivo, iv): 1,164 cpm/g | Net 59Fe content, Urine ([4]; in vivo, iv): 62,156 cpm/g | Net total 59Fe content, Heart ([4]; in vivo, iv): 3,248 cpm | Net total 59Fe content, Kidney ([4]; in vivo, iv): 21,770 cpm | Net total 59Fe content, Liver ([4]; in vivo, iv): 19,600 cpm | Net total 59Fe content, Spleen ([4]; in vivo, iv): 1,814 cpm | Net total 59Fe content, Urine ([4]; in vivo, iv): 1,180,900 cpm | kinetics of loss of radioactivity from blood ([4]; in vivo, iv): at least a two-component process | Net 59Fe content, Skeletal muscle ([4]; iron EDTA i.v., adjusted to 2.2×10^6 cpm): 95 cpm/g | plasma levels of radioactivity ([5]; duodenal): hardly exceeded the background level | Net 59Fe content, Heart [5, 12]: 188 cpm/g | Net 59Fe content, Kidney [5, 12]: 1,762 cpm/g | Net 59Fe content, Liver [5, 12]: 499 cpm/g | Net 59Fe content, Skeletal muscle [5, 12]: 117 cpm/g | Net 59Fe content, Spleen [5, 12]: 200 cpm/g | Net 59Fe content, Sternum (bone marrow) [5, 12]: 917 cpm/g | Net 59Fe content, Urine [5, 12]: 36,306 cpm/g | Net total 59Fe content, Heart [5, 12]: 2,878 cpm | Net total 59Fe content, Kidney [5, 12]: 19,913 cpm | Net total 59Fe content, Liver [5, 12]: 29,574 cpm | Net total 59Fe content, Spleen [5, 12]: 880 cpm | Net total 59Fe content, Urine [5, 12]: 544,596 cpm

Molecule: Cc1occc(=O)c1[O-].Cc1occc(=O)c1[O-].Cc1occc(=O)c1[O-].[Fe+3] [Iron maltol]
lability of the complex (apotransferrin): extremely labile | Iron uptake into serosal contents of the sac (rat jejunal sac [6]): 30.0 n mole | proportion of total iron present as 3:1 complex (rat jejunal sac [6]; at 2:1 ratio of maltol:iron): 13% | binding to bovine serum albumen [7]: little ability to bind to BSA | binding to haemoglobin (haemoglobin): no evidence is found for binding | 59Fe directed to the bone marrow ([4]; cat, in vivo, iv): approximately 90% | dose located in combined tissue of heart, liver and spleen ([4]; cat, in vivo, iv): approximately 10% | dose located in the urine ([4]; cat, in vivo, iv): less than 0.2% | Net 59Fe content, Heart ([4]; in vivo, iv): 490 cpm/g | Net 59Fe content, Kidney ([4]; in vivo, iv): 546 cpm/g | Net 59Fe content, Liver ([4]; in vivo, iv): 510 cpm/g | Net 59Fe content, Skeletal muscle ([4]; in vivo, iv): 0 cpm/g | Net 59Fe content, Spleen ([4]; in vivo, iv): 14,890 cpm/g | Net 59Fe content, Sternum (bone marrow) ([4]; in vivo, iv): 3,200 cpm/g | Net 59Fe content, Urine ([4]; in vivo, iv): 152 cpm/g | Net total 59Fe content, Heart ([4]; in vivo, iv): 7,056 cpm | Net total 59Fe content, Kidney ([4]; in vivo, iv): 6,661 cpm | Net total 59Fe content, Liver ([4]; in vivo, iv): 53,550 cpm | Net total 59Fe content, Skeletal muscle ([4]; in vivo, iv): 0 cpm | Net total 59Fe content, Spleen ([4]; in vivo, iv): 125,076 cpm | Net total 59Fe content, Urine ([4]; in vivo, iv): < 3,000 cpm | apparent volume of distribution ([4]; in vivo, iv): a value between that of the total extracellular space of the animal and the blood volume | time for erythrocyte uptake to reach equilibrium (human erythrocytes): about 15 minutes | partition coefficient Kpart (concentration in n-octanol/concentration in aqueous phase) [2, 11]: 0.50 | thermodynamic stability constant [8]: 30 | Iron associated with ghosts, Hypotonic lysis (erythrocyte ghosts): < 5% | Iron associated with ghosts, Triton lysis (erythrocyte ghosts): < 1% | Relative iron uptake, 15 minutes (rat jejunal sac [1]): 40 | Relative iron uptake, 60 minutes (rat jejunal sac [1]): 5.8 | concentration range over which uptake increased linearly (rat jejunal sac [1]): 500 to 10000 µM | period over which uptake was linear (rat jejunal sac [1]): 90 min

Relative iron uptake, 15 minutes (rat jejunal sac [1]): 1.6 | Relative iron uptake, 60 minutes (rat jejunal sac [1]): 0.8
Molecule: iron(II) gluconate [Fe^II gluconate]

Relative iron uptake, 15 minutes (rat jejunal sac [1]): 2.4 | Relative iron uptake, 60 minutes (rat jejunal sac [1]): 1.4
Molecule: O=S(=O)([O-])[O-].[Fe+2] [Fe^II sulphate, iron(II) sulphate]

Molecule: Cc1occc(=O)c1O [maltol, 3-hydroxy-2-methyl-4-pyrone]
deposition of iron in the bone marrow over time ([3]; 6 hour period): continuously throughout the 6 hour period at an apparently constant rate | partition coefficient Kpart (concentration in n-octanol/concentration in aqueous phase) ([2]; n-octanol/Tris hydrochloride 20 mM, pH 7.4, 10^-4 M, spectrophotometry): 0.66 | affinity for iron (log β3) [8]: 30 | metabolism [9]: rapidly metabolized | affinity for copper (II), zinc (II), calcium and magnesium [10]: lower affinity

Molecule: [Cl][Fe]([Cl])[Cl] [FeCl3, ferric chloride]
Relative iron uptake, 15 minutes (rat jejunal sac [1]; [13]): 1 | Relative iron uptake, 60 minutes (rat jejunal sac [1]; [13]): 1
